Read-outs that look alike come from different tables or passages of the source.
Tests used:
[1] = system: hot flashes; details: crossover analysis; cited from earlier work
[2] = system: hot flashes; details: placebo response rate 37.8%, cited from earlier work
[3] = system: hot flashes; details: 27% for placebo, cited from earlier work
[4] = system: hot flashes; details: vs. 29% for placebo; cited from earlier work
[5] = system: rats, mice, rabbits and dogs; experiment: Acute and multidose (28 day) toxicity studies, intranasal and intravenous; assay type: in vivo; details: single intranasal up to 100 μg/rat, 400 μg/rabbit, 600 μg/dog; repeated up to 50 μg/rat/day, 300 μg/dog/day; intravenous single and repeated up to 2.5 mg/kg
[6] = Ames reverse mutation assay; assay type: cell-based
[7] = system: bone marrow; experiment: in vivo bone marrow micronucleus test
[8] = system: pregnant rabbits; experiment: Reproductive toxicity studies in pregnant rabbits; assay type: in vivo; details: intravenous doses up to 2.5 mg/kg/day during the period of organogenesis
[9] = Preclinical pharmacokinetic studies, intranasal doses; assay type: in vivo; details: repeated or single escalating intranasal doses up to 100 μg/rat, 400 μg/rabbit, 600 μg/dog
[10] = Preclinical pharmacokinetic studies, intravenous doses; assay type: in vivo, rats, rabbits, or dogs; details: single repeated intravenous doses up to 2.5 mg/kg
[11] = system: women of reproductive age; experiment: Intranasal spray 500 nanograms in 14 women of reproductive age, autonomic and physiologic effects vs vehicle; assay type: in vivo, human; details: 500 nanograms intranasal, compared to the vehicle
[12] = system: women of reproductive age; experiment: Intranasal spray 1600 nanograms in women of reproductive age, core body temperature and sympathoadrenergic tone; assay type: in vivo, human; details: 1600 nanograms intranasal
Protocol: In another test also in women of reproductive age, intranasal delivery of a nasal spray containing 1600 nanograms of 16α,17α-epoxy-10β-hydroxyestr-4-en-3-one (one administration per nostril by a Valois intranasal spray pump of 50 μL of an aqueous solution of 16 μg/mL 16α,17α-epoxy-10β-hydroxyestr-4-en-3-one with 2% propylene glycol and 2% ethanol) caused a rapid (0.5 to 4 minute latency) decrease in core body temperature of 1±0.23° C. that persisted for 9±2.5 minutes.

[13] = system: hot flashes; details: cited from earlier work
[14] = system: hot flashes; details: oral and transdermal clonidine; cited from earlier work

Structure (SMILES): CNCCC(Oc1ccc(C(F)(F)F)cc1)c1ccccc1 (stereo not drawn) [Fluoxetine]
- reduction in hot flash frequency over the placebo condition [1]: ~20%

Structure (SMILES): Fc1ccc([C@@H]2CCNC[C@H]2COc2ccc3c(c2)OCO3)cc1 [Paroxetine]
- decrease of hot flash composite scores ([2]; 12.5 mg/day): 62%
- decrease of hot flash composite scores ([2]; 25.0 mg/day): 65%

Structure (SMILES): COc1ccc(C(CN(C)C)C2(O)CCCCC2)cc1 (stereo not drawn) [venlafaxine, Venlafaxine]
- reduction of hot flash scores from baseline ([3]; 37.5 mg/day): 37%
- reduction of hot flash scores from baseline ([3]; 75 and 150 mg/day): 60%

Structure (SMILES): NCC1(CC(=O)O)CCCCC1 [Gabapentin]
- reduction of hot flash frequency [4]: 45%

Structure (SMILES): C[C@]12CC[C@H]3[C@@H](CCC4=CC(=O)CC[C@@]43O)[C@@H]1C[C@H]1O[C@H]12 [16α,17α-epoxy-10β-hydroxyestr-4-en-3-one, 16α,17α-Epoxy-10β-hydroxyestr-4-en-3-one]
- tolerability (deaths, adverse clinical signs, effects on laboratory or pathology parameters) [5]: well tolerated in all species tested
- mutagenic or clastogenic potential [6]: no evidence of mutagenic or clastogenic potential
- mutagenic or clastogenic potential [7]: no evidence of mutagenic or clastogenic potential
- effects on maternal or litter parameters [8]: no adverse effects on maternal or litter parameters
- systemic exposure [9]: very low systemic exposure
- plasma concentrations [10]: generally were dose-proportional and decreased rapidly
- cardiac frequency [11]: not statistically significant increase
- core body temperature [11]: statistically significant decreases
- electrodermal activity (skin conductance) [11]: statistically significant decreases
- electromyographic activity [11]: statistically significant decreases
- respiratory frequency [11]: statistically significant decreases
- vagal tone [11]: statistically significant increases
- decrease in core body temperature [12]: 1±0.23 °C
- persistence of decrease in core body temperature [12]: 9 ± 2.5 min
- time to reduced tone of the sympathoadrenergic system (physiologic sinus arrhythmia) [12]: ≤ 5 minutes

Structure (SMILES): Clc1cccc(Cl)c1N=C1NCCN1 [clonidine, Clonidine]
- reduction of hot flash frequency ([13]; oral clonidine): 46%
- reduction of hot flash frequency ([13]; transdermal clonidine): 80%
- reductions in hot flash frequency compared with placebo [14]: smaller, but significant reductions

Reference: patent US8431559B2, “Treatment of hot flashes” (priority 2008, dated 2013)
